Measured values from patent US11130752B2, “Aminopyrimidine compound” (Cardurion Pharmaceuticals, LLC, priority 2018, dated 2021).

Key:
HepG2 cells = assay: In vitro cytotoxicity (cellular ATP content, CellTiter-Glo); type: cell-based; conditions: 33 μM, 72 hr incubation
Experimental: Evaluation of In Vitro Cytotoxicity
To evaluate in vitro cytotoxicity of test compounds, % ATP reduction was determined in the presence of 33 μM of each test compound after 72 hr incubation.
HepG2 cells were seeded in DMEM (Invitrogen) containing 10% FBS (Corning)+glucose (4.5 g/L) for 24 hr to allow cell adhesion. For compound treatments, compounds were diluted in DMSO and the media, followed by added to the wells (24 hr after the cell seeding) to obtain the desired final concentration (33 μM, n=2). The final DMSO concentration was 1%. After 72 hr, cellular ATP contents were measured using CellTiter-Glo Luminescent Cell Viability Assay (Promega). The % ATP reduction was determined by comparing the ATP contents in the absence and the presence of test compounds.

human CaMKIIδ = molecular target: T1, human CaMKIIδ (Homo sapiens, UniProt Q13557); assay: In vitro CaMKII inhibitory activity (binding assay, TR-FRET); conditions: activity ranks
T1 construct: Full-length, glutathione-S-transferase(GST)-tagged, human CaMKIIδ was purchased from Carna Biosciences; purchased Carna Biosciences (CaMKIIδ); Wako Pure Chemical Industries (calmodulin) 02-111
Outline: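 TR-FRET displacement of a BODIPY probe (300 nM) from 0.5 nM full-length GST-tagged human CaMKIIδ, with Tb-anti-GST, calmodulin and 1 mM CaCl2 in pH 7.6 HEPES/MgCl2 buffer. Read after 1 hr at room temperature over an eight-point 4-fold series. IC50 by logistic fit, with 3 μM parent compound as the 100% control.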

[1] = test system: phospholamban (Thr17, PLN) phosphorylation, cardiac CaMKII; assay: In vivo cardiac CaMKII inhibition (oral administration), P-PLN Western blot; conditions: male CD (SD) IGS rat left ventricle, 30 mg/kg p.o., 4 hr after administration, in comparison with vehicle-treated group, read-out: Reduction rate of P-PLN
Experimental: Evaluation of In Vivo Cardiac CaMKII Inhibition (Oral Administration)
To evaluate potency of test compounds to inhibit cardiac CaMKII kinase in vivo, phosphorylation levels of CaMKII-specific sites of phospholamban (Thr17, PLN) were measured in the heart of rats administered orally with test compounds.
Test compounds were suspended in 0.5% [w/v]methylcellulose/water solution and administered (30 mg/kg) to male CD (SD) IGS rat (6-8 weeks old, n=4) by the p.o. route (5 mL/kg). At 4 hours after the administration, rats were sacrificed and the hearts were harvested. After washing the isolated hearts with ice-cold saline, connective tissues were removed on ice, and the isolated left ventricle were frozen into liquid nitrogen gas and stored at −80° C.
(§1) The left ventricle samples were homogenized in RIPA-buffer containing phosphatase inhibitors and protease inhibitors. Samples were analyzed by Western blotting using anti-P-PLN (Thr17, Santa Cruz Biotechnology, sc-17024-R) antibody. The band intensities were quantified using an imaging system and were normalized relative to the vehicle-treated group.

[2] = test system: phospholamban (Thr17, PLN) phosphorylation, cardiac CaMKII; assay: In vivo cardiac CaMKII inhibition (intravenous administration), P-PLN Western blot; conditions: male CD (SD) IGS rat left ventricle, 1 mg/kg bolus i.v., 0.25 hr after administration, in comparison with vehicle-treated group
Experimental: Evaluation of In Vivo Cardiac CaMKII Inhibition (Intravenous Administration)
To evaluate potency of test compounds to inhibit cardiac CaMKII kinase in vivo, phosphorylation levels of CaMKII-specific sites of phospholamban (Thr17, PLN) were measured in the heart of rats administered intravenously with test compounds.
Test compounds were dissolved in N,N-dimethylacetamide and 1,3-butanediol (1:1) solution and were injected (1 mg/kg) to male CD (SD) IGS rats (8 weeks old, n=4) by bolus intravenous injection via the lateral tail vein or the femoral vein (0.5-1 mL/kg). At 0.25 hours after the injection, rats were sacrificed and the hearts were harvested. After washing the isolated hearts with ice-cold saline, connective tissues were removed on ice, and the isolated left ventricle were frozen into liquid nitrogen gas and stored at −80° C.
as §1

SMILES | % ATP reduction (HepG2 cells) | IC50 (human CaMKIIδ; Table 1, GST-tagged human CaMKIIδ) | melting point | inhibition in vivo at 30 mg/kg [1] | Reduction rate of P-PLN [2] | IC50 (human CaMKIIδ; Table 4, GST-tagged human CaMKIIδ)
COCCCOc1nn([C@H]2CC[C@H](N3C[C@@H](C)O[C@@H](C)C3)CC2)cc1Nc1ncc(-c2ccc(C#N)c(O[C@@H](C)Cn3cnnn3)c2)cn1 [Example 143, 2-(((S)-1-(1H-tetrazol-1-yl)propan-2-yl)oxy)-4-(2-((1-((1r,4r)-4-((2S,6R)-2,6-dimethylmorpholino)cyclohexyl)-3-(3-methoxypropoxy)-1H-pyrazol-4-yl)amino)pyrimidin-5-yl)benzonitrile] | 12% | < 10 nM | 113 °C | > 30% | >30% | –
C[C@@H]1CN([C@H]2CC[C@H](n3cc(Nc4ncc(-c5ccc(C#N)c(O[C@@H](C)Cn6cnnn6)c5)cn4)c(OCCC(C)(C)O)n3)CC2)C[C@H](C)O1 [Example 485, 2-(((S)-1-(1H-tetrazol-1-yl)propan-2-yl)oxy)-4-(2-((1-((1r,4r)-4-((2S,6R)-2,6-dimethylmorpholino)cyclohexyl)-3-(3-hydroxy-3-methylbutoxy)-1H-pyrazol-4-yl)amino)pyrimidin-5-yl)benzonitrile] | 7% | – | – | – | >30% | < 10 nM
